From patent US5977130A, “Intimal hypertrophy inhibitors” (Taiho Pharmeutical Co., Ltd., priority 1996, dated 1999)
Where a name gives a salt, the structure may show the parent alone.

Test system: intimal hypertrophy
Assay: not given
Conditions: background statement; cited from earlier work

SMILES | activity as intimal hypertrophy inhibitor
COc1ccc(/C=C/C(=O)Nc2ccccc2C(=O)O)cc1OC [a, Tranilast, reference compound] | weak activity

Test system: intimal hypertrophy
Assay: Intimal Hypertrophy Inhibiting Activity in Rats, test (2): balloon denudation of left carotid artery
Assay type: in vivo, male S.D. rats
Conditions: Dose 30 mg/kg, oral once a day, 14 days after denudation
Experimental: (§1) Pharmacological Test (Intimal Hypertrophy Inhibiting Activity in Rats)
(§2) By use of various compounds which serve as active ingredients of the present invention, the following tests (1) and (2) were performed in accordance with the method described in Journal of Clinical Investigation,85 (1990) 2004.
Groups of 13- to 14-week-old male S.D. rats were used. A 2F balloon catheter was inserted in each rat under etherification through the right iliac artery to the left carotid artery. While the balloon was inflated, the endothelium of the left caroid artery was denuded. Subsequently, the balloon catheter was removed, and an antibiotic was added dropwise into the abdominal cavity, followed by saturing. Each drug was suspended in 0.5% methylcellulose, and a dose of 10 ml/kg was orally administered once a day, starting from 2 hours after denudation. To the controls were administered 0.5% methylcellulose.
The rats were sacrificed 14 days after denudation The left carotid artery was removed and fixed, through perfusion, with 10% buffered formalin. Each sample was divided into six segments and the segments were processed by a customary method to thereby prepare paraffin sections. Six specimens of the sections from each rat were stained with hematoxylin-eosin. The area of the neoplastic intima and that of the media were measured, and assessment was performed in terms of percentage of intimal hypertrophy inhibition as determined from the intima/media area ratios, using as standards the data from the groups to which drugs had not been administered.

SMILES | Inhibition (%) of intimal hypertrophy (intima/media area ratio) [%]
Nc1ccc(C(=C2C(=O)Nc3ccccc32)c2ccc(N)cc2)cc1 [Compound 33, 3-[bis(4-aminophenyl)methylene]-oxindole] | 32.7
O=C1Nc2ccccc2C1=C(c1ccccn1)c1ccccn1 [Compound 35, 3-(di-2-pyridylmethylene)-oxindole] | 36.8
O=C1Nc2ccccc2C1=Cc1ccccn1 [Compound 38] | 42.0

Test system: intimal hypertrophy
Assay: Intimal Hypertrophy Inhibiting Activity in Rats, test (1): balloon denudation of thoracic aorta
Assay type: in vivo, male S.D. rats
Conditions: Rattus norvegicus, 336 h, Dose 30 mg/kg, oral once a day, 14 days after denudation, read-out: Inhibition (%) of intimal hypertrophy (intima/media thickness ratio)
Experimental: as §1, §2
Groups of 14- to 15-week-old male S.D. rats were used. A 3F balloon catheter was inserted in each rat, under etherification, through the right iliac artery to the aorta. While the balloon was inflated, the endothelium of the thoracic aorta was denuded. Subsequently, the balloon catheter was removed, and an antibiotic was added dropwise into the abdominal cavity, followed by saturing. Each drug was suspended in 0.5% methylcellulose, and a dose of 10 ml/kg was orally administered once a day, starting from 2 hours after denudation. To the controls were administered 0.5% methylcellulose.
The rats were sacrificed 14 days after denudation. The thoracic aorta was removed and fixed with 10% neutrally-buffered formalin. Six segments cut out from the lower part of each sample were processed by a customary method to thereby prepare paraffin sections. Six specimens of the sections from each rat were stained with hematoxylin-eosin. The thickness of the neoplastic intima at the site of maximal hypertrophy and that of the media at the same site were measured, and the ratio of intimal thickness to media thickness was calculated. Assessment was performed in terms of percentage of intimal hypertrophy inhibition as determined from the intima/media thickness ratios, using as standards the data from the groups to which drugs had not been administered.
The following four different compounds (a)-(d) were used as comparative compounds: […]

SMILES | inhibition in vivo at 30 mg/kg [%]
COc1ccc(C(=C2C(=O)Nc3ccccc32)c2ccc(OC)cc2)cc1 [Compound 1, 3-[bis(4-methoxyphenyl)methylene]-oxindole] | 33.2
Cc1ccc(C(=C2C(=O)Nc3ccccc32)c2ccc(C)cc2)cc1 [Compound 2] | 36.5
O=C1Nc2ccccc2C1=C(c1ccc(O)cc1)c1ccc(O)cc1 [Compound 5] | 14.8
CN(C)CCOc1ccc(C(=C2C(=O)Nc3ccccc32)c2ccc(OCCN(C)C)cc2)cc1 [Compound 6] | 14.7
O=C1Nc2ccccc2C1=C(c1ccccc1)c1ccccc1 [Compound 7] | 34.2
COc1ccc(C(=C2C(=O)Nc3cccnc32)c2ccc(OC)cc2)cc1 [Compound 8] | 28.9
CCOC(=O)c1ccc2c(c1)C(=C(c1ccc(C)cc1)c1ccc(C)cc1)C(=O)N2 [Compound 9] | 26.6
COc1ccc(C(=C2C(=O)Nc3ccc(N(C)C)cc32)c2ccc(OC)cc2)cc1 [Compound 10] | 14.8
Cc1ccc(C(=C2C(=O)Nc3cc(N)ccc32)c2ccc(C)cc2)cc1 [Compound 13] | 10.9
COc1ccc(C(=C2C(=O)N(CCN(C)C)c3ccccc32)c2ccc(OC)cc2)cc1 [Compound 16, 1-dimethylaminoethyl-3-[bis(4-methoxyphenyl)methylene]oxindole.HCl] | 21.1
COc1ccc(C(=C2C(=O)N(C)c3ccccc32)c2ccc(OC)cc2)cc1 [Compound 17] | 20.9
CCOC(=O)CN1C(=O)C(=C(c2ccc(OC)cc2)c2ccc(OC)cc2)c2ccccc21 [Compound 18] | 34.8
COc1ccc(C(=C2C(=O)N(CC(=O)N(C)C)c3ccccc32)c2ccc(OC)cc2)cc1 [Compound 20] | 7.2
CCOC(=O)CCCCCN1C(=O)C(=C(c2ccc(OC)cc2)c2ccc(OC)cc2)c2ccccc21 [Compound 22] | 28
COC(=O)c1ccc(CN2C(=O)C(=C(c3ccc(OC)cc3)c3ccc(OC)cc3)c3ccccc32)cc1 [Compound 24] | 35.1
COc1ccc(C(=C2C(=O)N(S(=O)(=O)c3ccc(C)cc3)c3ccccc32)c2ccc(OC)cc2)cc1 [Compound 25, 1-paratoluenesulfonyl-3-[bis(4-methoxyphenyl)methylene]oxindole] | 7.6
COc1ccc(C(c2ccc(OC)cc2)C2C(=O)Nc3ccccc32)cc1 (stereo not shown) [Compound 27, 3-[bis(4-methoxyphenyl)methyl]oxindole] | 19.7
Cc1ccc(C(c2ccc(C)cc2)C2C(=O)Nc3ccccc32)cc1 (stereo not shown) [Compound 28] | 28.4
COc1ccc(C=C2C(=O)Nc3ccccc32)cc1 [Compound 31, 3-(4-methoxybenzylidene)-oxindole] | 40
COc1cc(C=C2C(=O)Nc3ccccc32)cc(OC)c1O [Compound 32] | 34
COc1ccc(/C=C/C(=O)Nc2ccccc2C(=O)O)cc1OC [a, Tranilast, reference compound] | 7.1
CC(C)c1cc(C=C2C(=O)Nc3ccccc32)cc(C(C)C)c1O [b, reference compound] | -26
CON1C(=O)C(=Cc2cc(C(C)(C)C)c(O)c(C(C)(C)C)c2)c2ccc(Cl)cc21 [c, reference compound] | -8.6
O=C1Nc2ccc(O)cc2C1=Cc1cc2ccccc2[nH]1 [d, reference compound] | -0.1

Same assay, conditions: Rattus norvegicus, 336 h, Dose 100 mg/kg, oral once a day, 14 days after denudation, read-out: Inhibition (%) of intimal hypertrophy (intima/media thickness ratio)

SMILES | inhibition in vivo at 100 mg/kg [%]
COc1ccc(C(=C2C(=O)Nc3ccccc32)c2ccc(OC)cc2)cc1 [Compound 1, 3-[bis(4-methoxyphenyl)methylene]-oxindole] | 46.6
Cc1ccc(C(=C2C(=O)Nc3ccccc32)c2ccc(C)cc2)cc1 [Compound 2] | 42.3
COc1ccc(/C=C/C(=O)Nc2ccccc2C(=O)O)cc1OC [a, Tranilast, reference compound] | 18.1
